Results from ChEMBL document CHEMBL1127118 (Bioorg Med Chem Lett, 1993).
Values joined by “and” are separate entries in the source; they are usually repeats but may differ in a detail not shown here. Equal values may be shown once.

What was measured:
[1] = target: T1, 5-hydroxytryptamine receptor 1A (Rattus norvegicus, UniProt P19327); assay: Displacement of [3H]8-OH-DPAT from rat hippocampal 5-hydroxytryptamine 1A receptor; assay type: tissue-based, Hippocampus
T1 sequence (P19327 whole entry): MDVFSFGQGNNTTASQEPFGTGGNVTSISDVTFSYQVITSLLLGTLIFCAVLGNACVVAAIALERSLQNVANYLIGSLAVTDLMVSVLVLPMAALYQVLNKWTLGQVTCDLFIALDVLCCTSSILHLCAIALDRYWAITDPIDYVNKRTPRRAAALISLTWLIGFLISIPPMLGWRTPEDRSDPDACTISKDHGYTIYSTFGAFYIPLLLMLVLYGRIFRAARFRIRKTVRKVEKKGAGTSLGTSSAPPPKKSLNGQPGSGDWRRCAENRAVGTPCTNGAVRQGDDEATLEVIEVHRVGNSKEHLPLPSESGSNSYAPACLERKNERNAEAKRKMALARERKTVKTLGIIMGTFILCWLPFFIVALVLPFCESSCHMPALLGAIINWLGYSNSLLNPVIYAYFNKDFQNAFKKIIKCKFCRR

[2] = target: 5-hydroxytryptamine receptor 1B (Rattus norvegicus, UniProt P28564); assay: Binding affinity against 5-hydroxytryptamine 1B receptor in rat striatal membranes using [3H]5-HT as radioligand; assay type: cell membranes, Striatum, Membrane
Sequence of 5-hydroxytryptamine receptor 1B (P28564 whole entry): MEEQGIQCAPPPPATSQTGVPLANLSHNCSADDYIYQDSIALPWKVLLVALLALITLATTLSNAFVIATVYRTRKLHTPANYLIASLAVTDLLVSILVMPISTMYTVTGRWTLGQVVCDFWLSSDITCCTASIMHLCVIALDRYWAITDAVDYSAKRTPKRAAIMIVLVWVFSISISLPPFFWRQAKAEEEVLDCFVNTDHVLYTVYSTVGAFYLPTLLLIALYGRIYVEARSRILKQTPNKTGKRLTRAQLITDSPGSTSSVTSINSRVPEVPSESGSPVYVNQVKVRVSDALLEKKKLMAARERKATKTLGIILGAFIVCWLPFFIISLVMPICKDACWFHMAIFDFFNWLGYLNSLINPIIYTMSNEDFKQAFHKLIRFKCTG

[3] = target: T1, 5-hydroxytryptamine receptor 1A; assay: The compound was evaluated for binding affinity against 5-hydroxytryptamine 1A receptor in rat hippocampal membranes using [3H]8-OH-DPAT as radioligand in the presence of 3*10e-5 M GTP gamma S; assay type: cell membranes, Hippocampus
[4] = target: T1, 5-hydroxytryptamine receptor 1A; assay: The compound was evaluated for binding affinity against 5-hydroxytryptamine 1A receptor in rat hippocampal membranes using [3H]8-OH-DPAT as radioligand in the presence of 1 mM of MnCl2; assay type: cell membranes, Hippocampus

| Structure (SMILES) | Ki [1] | Ki [2] | Ki [3] | Ki [4] |
| --- | --- | --- | --- | --- |
| CCCN(CCC)C1CCc2cccc(OC)c2C1 (stereo not drawn) | 3.05 nM | 3970 nM |  |  |
| COc1cccc2c1CC(N)CC2 (stereo not drawn) | 158 nM | 902 nM |  |  |
| CCCN(CCC)C1CCc2c(C)ccc(OC)c2C1 (stereo not drawn) | 115 nM | 575 nM |  |  |
| COc1cc2ccccc2c2c1CC(N)CC2 (stereo not drawn) | 1060 nM | 76.3 nM |  |  |
| COc1ccc(C)c2c1CC(N)CC2 (stereo not drawn) | 436 nM | > 10000 nM |  |  |
| CCCN(CCC)C1CCc2cc3ccccc3c(O)c2C1 (stereo not drawn) | 2520 nM | > 1000 nM |  |  |
| CCCN(CCC)C1CCc2c(c(OC)cc3ccccc23)C1 (stereo not drawn) | 1300 nM | 6340 nM |  |  |
| CCCN(CCC)C1CCc2c(C)ccc(O)c2C1 (stereo not drawn) | 18.4 nM and 30.8 nM | > 10000 nM | 81.1 nM | 46.6 nM |
| COc1c2c(cc3ccccc13)CCC(N)C2 (stereo not drawn) | 2520 nM | 23 nM |  |  |
| CC(C)(C)NCC(O)COc1cccc2c1SCCC2 (stereo not drawn) [TERTATOLOL] | 18.2 nM |  | 37.6 nM | 7.71 nM |
